Measurements from PMC6178217 (JACC. Cardiovascular imaging, 2018).
Read-outs that look alike come from different tables or passages of the source.

How the values were obtained:
[1] = obese mice, intravenous, median (range)
myocardial CB1-R [2] = biological target: myocardial CB1-R (Mus musculus, UniProt P47746); assay: [^11C]-OMAR dynamic micro-PET/CT, myocardial OMAR retention in mice; assay type: in vivo; conditions: for myocardial OMAR retention: median [range]
[3] = as reported in brain studies; cited from earlier work
CB1-R [4] = conditions: cited from earlier work
CB1-R [5] = biological target: CB1-R (Mus musculus, UniProt P47746); assay: Rimonabant blocking study of [^11C]-OMAR uptake in obese mice; assay type: in vivo
myocardial CB1-R [6] = biological target: myocardial CB1-R (Homo sapiens, UniProt P21554); assay: [^11C]-OMAR PET/CT, myocardial retention index of OMAR in humans; assay type: in vivo; conditions: median (range)
[7] = median (range)

CB1-R (Mus musculus, UniProt P47746), sequence (P47746 whole entry): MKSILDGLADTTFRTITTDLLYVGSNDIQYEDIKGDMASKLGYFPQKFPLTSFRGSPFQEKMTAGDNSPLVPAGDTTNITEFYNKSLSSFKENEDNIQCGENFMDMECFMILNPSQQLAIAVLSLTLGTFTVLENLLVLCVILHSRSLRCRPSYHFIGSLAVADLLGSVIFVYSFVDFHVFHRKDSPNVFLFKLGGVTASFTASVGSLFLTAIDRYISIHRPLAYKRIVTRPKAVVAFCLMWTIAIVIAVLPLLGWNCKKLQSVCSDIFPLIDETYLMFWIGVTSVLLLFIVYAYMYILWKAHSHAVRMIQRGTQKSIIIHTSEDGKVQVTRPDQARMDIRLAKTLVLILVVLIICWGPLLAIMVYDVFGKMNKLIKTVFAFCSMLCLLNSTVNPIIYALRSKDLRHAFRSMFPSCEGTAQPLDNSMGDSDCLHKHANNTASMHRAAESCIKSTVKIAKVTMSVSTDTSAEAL
myocardial CB1-R (Mus musculus, UniProt P47746), sequence (P47746 whole entry): as above
myocardial CB1-R (Homo sapiens, UniProt P21554), sequence (P21554 whole entry): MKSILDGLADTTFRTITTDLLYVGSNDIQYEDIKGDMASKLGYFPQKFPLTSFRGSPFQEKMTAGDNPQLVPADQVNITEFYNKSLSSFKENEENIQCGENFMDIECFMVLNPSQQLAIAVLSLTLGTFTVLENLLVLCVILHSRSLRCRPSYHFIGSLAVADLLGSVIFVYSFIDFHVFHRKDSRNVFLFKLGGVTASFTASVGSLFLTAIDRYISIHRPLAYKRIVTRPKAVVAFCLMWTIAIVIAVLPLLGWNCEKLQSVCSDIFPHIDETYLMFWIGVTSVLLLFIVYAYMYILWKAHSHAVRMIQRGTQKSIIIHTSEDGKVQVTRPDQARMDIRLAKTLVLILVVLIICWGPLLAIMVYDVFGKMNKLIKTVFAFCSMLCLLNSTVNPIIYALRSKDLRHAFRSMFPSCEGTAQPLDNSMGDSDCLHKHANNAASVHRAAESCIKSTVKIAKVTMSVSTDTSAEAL

## [11CH3]Oc1ccc(-c2c(C#N)c(C(=O)NN3CCCCC3)nn2-c2ccc(Cl)cc2Cl)cc1 [[^11C]-OMAR]
[1]; 5 min
  [^11C]-OMAR uptake, Blood: 1.19 (1.10–1.33) %ID/g Tissue
  [^11C]-OMAR uptake, Cerebellum: 2.43 (1.72–2.74) %ID/g Tissue
  [^11C]-OMAR uptake, Heart: 4.63 (4.00–5.23) %ID/g Tissue
[1]; 10 min
  [^11C]-OMAR uptake, Blood: 0.99 (0.91–1.19) %ID/g Tissue
  [^11C]-OMAR uptake, Cerebellum: 2.32 (2.11–2.50) %ID/g Tissue
  [^11C]-OMAR uptake, Thalamus: 1.62 (1.59–1.72) %ID/g Tissue
[1]; 15 min
  [^11C]-OMAR uptake, Blood: 0.99 (0.91–1.19) %ID/g Tissue
  [^11C]-OMAR uptake, Cerebellum: 2.53 (2.43–2.55) %ID/g Tissue
  [^11C]-OMAR uptake, Thalamus: 1.69 (1.59–1.72) %ID/g Tissue
[1]; 30 min
  [^11C]-OMAR uptake, Blood: 0.55 (0.39–0.65) %ID/g Tissue
  [^11C]-OMAR uptake, Cerebellum: 2.11 (1.25–2.38) %ID/g Tissue
  [^11C]-OMAR uptake, Heart: 2.14 (2.09–2.17) %ID/g Tissue
  [^11C]-OMAR uptake, Thalamus: 1.21 (1.18–1.21) %ID/g Tissue
[1]; 60 min
  [^11C]-OMAR uptake, Blood: 0.46 (0.46–0.47) %ID/g Tissue
  [^11C]-OMAR uptake, Cerebellum: 1.37 (1.25–1.51) %ID/g Tissue
  [^11C]-OMAR uptake, Heart: 1.55 (1.48–1.61) %ID/g Tissue
  [^11C]-OMAR uptake, Thalamus: 0.73 (0.58–0.77) %ID/g Tissue
[1]; 90 min
  [^11C]-OMAR uptake, Blood: 0.55 (0.51–0.68) %ID/g Tissue
  [^11C]-OMAR uptake, Cerebellum: 1.11 (1.05–2.00) %ID/g Tissue
  [^11C]-OMAR uptake, Heart: 1.40 (1.40–1.79) %ID/g Tissue
  [^11C]-OMAR uptake, Thalamus: 0.55 (0.38–0.98) %ID/g Tissue
Myocardial CB1-R [2]; heart, ob/ob vs lean control mice, micro-PET/CT
  fold higher [^11C]-OMAR retention in obese versus lean mice: 8 fold
Myocardial CB1-R [2]; normal-weight mice
  myocardial OMAR retention: 0.13 %/min
Myocardial CB1-R [2]; obese mice
  binding potential of [^11C]-OMAR to myocardial CB1-R: 6.4
  myocardial OMAR retention: 8.29 %/min
[3]
  radioactivity related to unchanged [^11C]-OMAR: at least 94%
CB1-R [4]; brain
  blocking of [^11C]-OMAR uptake reported for brain studies: about 75%
CB1-R [4]; previous blocking studies in the brain
  binding potential in the brain: about 2
CB1-R [5]; 5 mg/kg dose of rimonabant, heart
  [^11C]-OMAR uptake that could not be blocked: about 42%
CB1-R [5]; myocardial blocking study
  baseline-to-block ratio of myocardial [^11C]-OMAR uptake: about 2.4
  binding potential: > 1
Myocardial CB1-R [6]; AOB (advanced obesity)
  OMAR retention (absolute left ventricular): 5.68 (1.88–6.89) %/min
Myocardial CB1-R [6]; CON (normal-weight control subjects)
  OMAR retention (absolute left ventricular): 0.47 (0.13–1.31) %/min
[7]; AOB
  DBP after [^11C]-OMAR injection: 71 (56–78) mm Hg
  HR after [^11C]-OMAR injection: 72 (65–84) beats/min
  MAP after [^11C]-OMAR injection: 93 (76–96) mm Hg
  RPP after [^11C]-OMAR injection: 9,588 (7,325–10,960) mm Hg/min
  SBP after [^11C]-OMAR injection: 133 (116–140) mm Hg
[7]; CON
  DBP after [^11C]-OMAR injection: 62 (60–68) mm Hg
  HR after [^11C]-OMAR injection: 70 (61–77) beats/min
  MAP after [^11C]-OMAR injection: 81 (75–97) mm Hg
  SBP after [^11C]-OMAR injection: 120 (118–124) mm Hg
